Laboratory results as given in patent US9751869B2, “LXR modulators” (BRISTOL-MYERS SQUIBB COMPANY, priority 2013, dated 2017).

Target: T1, LXRβ (Homo sapiens, UniProt P55055)
T1 construct: Co-transfection expression plasmids, comprising full-length LXRα (pCMX-h LXRα or LXRβ (pCMX-hLXRβ)); expressed in transfected cells; host or cells: CV-1 African green monkey kidney cells, transient transfection with pCMX-hLXRβ
T1 sequence (P55055 1-460): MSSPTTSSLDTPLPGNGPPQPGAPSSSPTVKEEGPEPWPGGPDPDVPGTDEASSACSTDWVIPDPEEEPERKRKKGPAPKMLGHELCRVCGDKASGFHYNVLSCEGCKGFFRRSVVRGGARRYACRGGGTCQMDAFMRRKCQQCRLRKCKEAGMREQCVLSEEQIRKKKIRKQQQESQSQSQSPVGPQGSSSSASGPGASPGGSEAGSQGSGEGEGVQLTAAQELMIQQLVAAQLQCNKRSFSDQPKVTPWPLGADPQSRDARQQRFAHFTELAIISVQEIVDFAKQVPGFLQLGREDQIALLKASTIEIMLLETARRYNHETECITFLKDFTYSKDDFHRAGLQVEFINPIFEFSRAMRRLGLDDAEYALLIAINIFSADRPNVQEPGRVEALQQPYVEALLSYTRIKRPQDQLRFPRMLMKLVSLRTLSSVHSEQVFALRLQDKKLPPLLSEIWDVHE
T1 sequence (P19793 1-462 partner): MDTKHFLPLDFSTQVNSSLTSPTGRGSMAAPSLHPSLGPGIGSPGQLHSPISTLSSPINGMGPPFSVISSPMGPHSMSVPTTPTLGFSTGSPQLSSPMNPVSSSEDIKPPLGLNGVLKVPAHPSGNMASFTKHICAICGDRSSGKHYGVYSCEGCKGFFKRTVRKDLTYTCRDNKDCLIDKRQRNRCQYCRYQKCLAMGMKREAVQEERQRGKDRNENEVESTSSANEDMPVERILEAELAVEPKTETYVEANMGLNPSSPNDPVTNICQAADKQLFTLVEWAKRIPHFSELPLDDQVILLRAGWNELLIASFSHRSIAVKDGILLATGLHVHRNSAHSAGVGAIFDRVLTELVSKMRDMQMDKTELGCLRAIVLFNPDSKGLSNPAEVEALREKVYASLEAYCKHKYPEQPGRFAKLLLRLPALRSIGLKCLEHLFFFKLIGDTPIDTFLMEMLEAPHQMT
Assay: LXR/LXRE co-transfection assay (luciferase reporter) in CV-1 cells, LXRβ
Type: cell-based
Conditions: for EC50: CV-1 cells transfected with pCMX-hLXRβ and LXREx1-Tk-Luciferase, 20 hours incubation, read-out: LXRbeta agonism EC50; for Emax / LXRbeta % EFFICACY: CV-1 cells, relative to maximum response of high control N-(3-((4-fluorophenyl)-(naphthalene-2-sulfonyl)amino)propyl)-2,2-dimethylpropionamide; for Emax: read-out: LXRbeta % EFFICACY
How it was run: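 CV-1 cells transiently co-transfected with full-length human LXRβ, LXRE-Tk-luciferase reporter and β-galactosidase control, then exposed to compound (≤0.5% DMSO) for 20 h at 37 °C before luminescence read. EC50 from 10-point, half-log dose curves; efficacy relative to the sulfonamide high control, means of 2–3 experiments.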

Compound | EC50 [nM] | Emax [%] | LXRbeta % EFFICACY [%]
Cc1nc(-c2ccc3c(c2)OC(F)(F)O3)c(-c2cc(-c3cccc(S(C)(=O)=O)c3)ccc2-c2cc(C(C)OC(N)=O)nn2C)o1 (centres unmarked) [Example 129, 1-(5-(3-(4-(2,2-difluorobenzo[d][1,3]dioxol-5-yl)-2-methyloxazol-5-yl)-3′-(methylsulfonyl)-[1,1′-biphenyl]-4-yl)-1-methyl-1H-pyrazol-3-yl)ethyl carbamate] | 87 | 48 | –
Cc1nc(-c2ccc3c(c2)OC(F)(F)O3)c(-c2cc(-c3cccc(S(C)(=O)=O)c3)ccc2-c2cc(C(C)OC(N)=O)nn2C)o1 (centres unmarked) [Example 130, 1-(5-(3-(4-(2,2-difluorobenzo[d][1,3]dioxol-5-yl)-2-methyloxazol-5-yl)-3′-(methylsulfonyl)-[1,1′-biphenyl]-4-yl)-1-methyl-1H-pyrazol-3-yl)ethyl carbamate] | 113 | – | 56
Cc1nc(-c2ccc3c(c2)OC(F)(F)O3)c(-c2cc(-c3cc(F)c(CO)c(S(C)(=O)=O)c3)ccc2-c2cc(C(C)OC(N)=O)nn2C)o1 (centres unmarked) [Example 131, 1-(5-(3-(4-(2,2-difluorobenzo[d][1,3]dioxol-5-yl)-2-methyloxazol-5-yl)-3′-fluoro-4′-(hydroxymethyl)-5′-(methylsulfonyl)-[1,1′-biphenyl]-4-yl)-1-methyl-1H-pyrazol-3-yl)ethyl carbamate] | 178 | 47 | –
Cc1nc(-c2ccc3c(c2)OC(F)(F)O3)c(-c2cc(-c3cc(F)c(CO)c(S(C)(=O)=O)c3)ccc2-c2cc(C(C)OC(N)=O)nn2C)o1 (centres unmarked) [Example 132, 1-(5-(3-(4-(2,2-difluorobenzo[d][1,3]dioxol-5-yl)-2-methyloxazol-5-yl)-3′-fluoro-4′-(hydroxymethyl)-5′-(methylsulfonyl)-[1,1′-biphenyl]-4-yl)-1-methyl-1H-pyrazol-3-yl)ethyl carbamate] | 157 | – | 49
CC(=O)c1cc(-c2ccc(-c3cc(F)c(CO)c(S(C)(=O)=O)c3)cc2-c2oc(C)nc2-c2ccc3c(c2)OC(F)(F)O3)n(C)n1 [Example 133, 1-(5-(3-(4-(2,2-difluorobenzo[d][1,3]dioxol-5-yl)-2-methyloxazol-5-yl)-3′-fluoro-4′-(hydroxymethyl)-5′-(methylsulfonyl)-[1,1′-biphenyl]-4-yl)-1-methyl-1H-pyrazol-3-yl)ethanone] | 12 | 66 | –
Cc1cc(C(F)(F)F)nn1-c1ccc(-c2cccc(S(C)(=O)=O)c2)cc1-n1nncc1-c1ccc(OC(F)(F)F)cc1 [Example 300, 1-{3′-(methylsulfonyl)-4-[5-methyl-3-(trifluoromethyl)-1H-pyrazol-1-yl]biphenyl-3-yl}-5-{4-[(trifluoromethyl)oxy]phenyl}-1H-1,2,3-triazole] | 153 | 99 | –
Cc1cc(C(F)(F)F)nn1-c1ccc(-c2cc(F)c(CO)c(S(C)(=O)=O)c2)cc1-n1nncc1-c1ccc(OC(F)(F)F)cc1 [Example 301, [3-fluoro-5-(methylsulfonyl)-4′-[5-methyl-3-(trifluoromethyl)-1H-pyrazol-1-yl]-3′-(5-{4-[(trifluoromethyl)oxy]phenyl}-1H-1,2,3-triazol-1-yl)biphenyl-4-yl]methanol] | 32 | 101 | –
Cc1cc(C(F)(F)F)nn1-c1ccc(-c2cc(Cl)c(CO)c(S(C)(=O)=O)c2)cc1-n1nncc1-c1ccc(OC(F)(F)F)cc1 [Example 302, [3-chloro-5-(methylsulfonyl)-4′-[5-methyl-3-(trifluoromethyl)-1H-pyrazol-1-yl]-3′-(5-{4-[(trifluoromethyl)oxy]phenyl}-1H-1,2,3-triazol-1-yl)biphenyl-4-yl]methanol] | 227 | 93 | –
Cc1cc(C(F)(F)F)nn1-c1ccc(-c2cccc(C(C)(C)C(N)=O)c2)cc1-n1nncc1-c1ccc(OC(F)(F)F)cc1 [Example 303, 2-methyl-2-{4′-[5-methyl-3-(trifluoromethyl)-1H-pyrazol-1-yl]-3′-(5-{4-[(trifluoromethyl)oxy]phenyl}-1H-1,2,3-triazol-1-yl)biphenyl-3-yl}propanamide] | 825 | 102 | –
Cc1cc(C(C)(F)F)nn1-c1ccc(-c2cccc(S(C)(=O)=O)c2)cc1-n1nncc1-c1ccc(OC(F)(F)F)cc1 [Example 304, 1-{4-[3-(1,1-difluoroethyl)-5-methyl-1H-pyrazol-1-yl]-3′-(methylsulfonyl)biphenyl-3-yl}-5-{4-[(trifluoromethyl)oxy]phenyl}-1H-1,2,3-triazole] | 2860 | 26 | –
Cc1cc(C(C)(F)F)nn1-c1ccc(-c2cc(F)c(CO)c(S(C)(=O)=O)c2)cc1-n1nncc1-c1ccc(OC(F)(F)F)cc1 [Example 305, {4′-[3-(1,1-difluoroethyl)-5-methyl-1H-pyrazol-1-yl]-3-fluoro-5-(methylsulfonyl)-3′-(5-{4-[(trifluoromethyl)oxy]phenyl}-1H-1,2,3-triazol-1-yl)biphenyl-4-yl}methanol] | 2040 | 45 | –

Other lines, results leading:

EC50 [nM] | Emax [%] | LXRbeta % EFFICACY [%] | Compound
203 | 71 | – | Cc1cc(C(C)(F)F)n(-c2ccc(-c3cccc(S(C)(=O)=O)c3)cc2-n2nncc2-c2ccc(OC(F)(F)F)cc2)n1 [Example 306, 1-{4-[5-(1,1-difluoroethyl)-3-methyl-1H-pyrazol-1-yl]-3′-(methylsulfonyl)biphenyl-3-yl}-5-{4-[(trifluoromethyl)oxy]phenyl}-1H-1,2,3-triazole]
91 | 98 | – | Cc1cc(C(F)(F)F)nn1-c1ccc(-c2cccc(S(C)(=O)=O)c2)cc1-c1ocnc1-c1ccc(OC(F)(F)F)cc1 [Example 307, 5-{3′-(methylsulfonyl)-4-[5-methyl-3-(trifluoromethyl)-1H-pyrazol-1-yl]biphenyl-3-yl}-4-{4-[(trifluoromethyl)oxy]phenyl}-1,3-oxazole]
1650 | 29 | – | Cc1nc(-c2ccc(OC(F)(F)F)cc2)c(-c2cc(-c3cccc(S(C)(=O)=O)c3)ccc2-n2ccc(C(N)=O)n2)o1 [Example 308, 1-(3-(2-methyl-4-(4-(trifluoromethoxy)phenyl)oxazol-5-yl)-3′-(methylsulfonyl)biphenyl-4-yl)-1H-pyrazole-3-carboxamide]
120 | 68 | – | Cc1nc(-c2ccc(OC(F)(F)F)cc2)c(-c2cc(-c3cccc(S(C)(=O)=O)c3)ccc2-n2ccc(C(F)(F)F)n2)o1 [Example 309, 2-methyl-5-(3′-(methylsulfonyl)-4-(3-(trifluoromethyl)-1H-pyrazol-1-yl)-[1,1′-biphenyl]-3-yl)-4-(4-(trifluoromethoxy)phenyl)oxazole]
27 | 75 | – | Cc1nc(-c2cc(-c3cccc(S(C)(=O)=O)c3)ccc2-n2cc(Cl)c(C(F)(F)F)n2)c(-c2ccc(OC(F)(F)F)cc2)o1 [Example 310, 4-(4-(4-chloro-3-(trifluoromethyl)-1H-pyrazol-1-yl)-3′-(methylsulfonyl)-[1,1′-biphenyl]-3-yl)-2-methyl-5-(4-(trifluoromethoxy)phenyl)oxazole]
798 | 37 | – | CCOc1cc(C(F)(F)F)nn1-c1ccc(-c2cccc(S(C)(=O)=O)c2)cc1-c1nc(C)oc1-c1ccc(OC(F)(F)F)cc1 [Example 311, 4-(4-(5-ethoxy-3-(trifluoromethyl)-1H-pyrazol-1-yl)-3′-(methylsulfonyl)biphenyl-3-yl)-2-methyl-5-(4-(trifluoromethoxy)phenyl)oxazole]
798 | 34 | – | Cc1nc(-c2cc(-c3cccc(S(C)(=O)=O)c3)ccc2-n2nc(C(F)(F)F)cc2C2CC2)c(-c2ccc(OC(F)(F)F)cc2)o1 [Example 312, 4-(4-(5-cyclopropyl-3-(trifluoromethyl)-1H-pyrazol-1-yl)-3′-(methylsulfonyl)biphenyl-3-yl)-2-methyl-5-(4-(trifluoromethoxy)phenyl)oxazole]
20 | 59 | – | Cc1nc(-c2ccc(OC(F)(F)F)cc2)c(-c2cc(-c3cc(F)c(CO)c(S(C)(=O)=O)c3)ccc2-n2ccc(C(C)(F)F)n2)o1 [Example 313, (4′-(3-(1,1-difluoroethyl)-1H-pyrazol-1-yl)-3-fluoro-3′-(2-methyl-4-(4-(trifluoromethoxy)phenyl)oxazol-5-yl)-5-(methylsulfonyl)-[1,1′-biphenyl]-4-yl)methanol]
